A word on the inhibition: it is the relative decrease from the control value, in per cent.

This is an account of results in US5023236A, “Factor VII/VIIA active site inhibitors” (Corvas, Inc., priority 1989, dated 1991).

Assay [1] deals with T1, factor VII/VIIa in the binary complex with tissue factor (Homo sapiens, UniProt P08709).
T1 construct: purified human factor VII (1 nM), purified as described by Fair, D; from tissue; TF endogenous on J82 cells (ATCC HTB1)
The experiment in a line: linked enzyme chromogenic assay of factor X activation (S2222) with factor VII and TF positive J82 cells. Type of assay: biochemical. The following applies: for inhibitory activity (in words): peptides with R3 side chain on threonyl-arginine; for Ki 5: peptidyl chloromethyl ketones, Table 3; for Relative potency Ki 5 (MU): P3 side chain of peptide P3-Thr-Arg, one unit = inverse of the molar concentration at 5% inhibition of factor X activation; for Peptide (Ki 5): free peptide; for Peptide (Ki 5) / Peptidyl-CMK (Ki 5): inverse of molar concentration at 5% inhibition of factor X activation; for Peptidyl-CMK (Ki 5): chloromethyl ketone analogue; for pIC50: concentration required for 50% inhibition of the rate of factor X activation, column beside Peptidyl-CMK, read-out: Ki 50 (the source's name). As to the method: Relative potency is expressed as megaunits (MU), where one unit is equal
to the inverse of the molar concentration at 5% inhibition of factor X
activation. Quantitation of inhibition of factor VII/VIIa in the binary
complex with tissue factor was performed in a linked enzyme chromogenic
assay using factor X, purified as described by Schwartz, B. S. et al.
(1981) J. Clin. Invest. 67:1650, and the chromogenic substrate S2222
(Helena Labs, Beaumont, Texa s). Briefly, the peptides were preincubated
with purified human factor VII (1 nM), purified as described by Fair, D.
incubation at room temperature 25 μl of 20 mM CaCl2, 1 ×
10^5 TF positive human bladder carcinoma derived J82 cells (available
from American Type Culture Collection, Rockville, Maryland, under
Accession No. ATCC HTB1), 25 μl of purified human factor human factor
(100 .eta.M) in 50 μl of TRIS buffered saline and 50 μl of 2 mM
S2222 was added. The use of J82 cells is an important feature of these in
vitro assays because they produce significant levels of TF for the
formation of active TF:VII/VIIa. The rate of conversion of factor X to Xa
was monitored kinetically by determination of the chromogenic product of
Inhibition by the compounds of this invention of the proteolytic activity of [TF:VII/VIIa] on factor X was analyzed by a chromogenic assay in which the substrate S-2222 is cleaved by the generated factor Xa. […] Analyses included the absence of effect of all such compounds on factor Xa, an enzyme closely homologous to factor VII and VIIa. […]

Assay [2] concerns the target T2, [TF:VII/VIIa] complex (Homo sapiens, UniProt P08709).
T2 construct: from tissue; host or cells: normal human plasma (factor VII); J82 cells (endogenous TF)
The experiment in a line: clotting inhibition of normal human plasma with J82 cells. Type of assay: biochemical. The procedure:
Normal human plasma was diluted 1:3 by volume with 0.02 M Na Citrate, 0.14M NaCl pH 7.4 in a glass tube. Diluted plasma (100μl) was then mixed with 100μl of J82 cells at 1×10^6 cells/ml and 100 μl of inhibitor. Plasma clotting times were obtained by visual observation of initial turbidity following addition of 100 μl of 20 mM calcium chloride. Human plasma clotting times were also expressed as calculated milli-units of TF activity (assuming no inhibitor present).

pIC50: −log10 of the molar value. Non-standard residues stand in square brackets, D forms with d. Residues, ends and D or L forms follow the SMILES beside them. *: point of attachment. Dansyl = CN(C)c1cccc2c(S(=O)(=O)*)cccc12; Tos = Cc1ccc(S(=O)(=O)*)cc1; CH2Cl = ClC*

T1 sequence (P08709 213-466 limits assumed): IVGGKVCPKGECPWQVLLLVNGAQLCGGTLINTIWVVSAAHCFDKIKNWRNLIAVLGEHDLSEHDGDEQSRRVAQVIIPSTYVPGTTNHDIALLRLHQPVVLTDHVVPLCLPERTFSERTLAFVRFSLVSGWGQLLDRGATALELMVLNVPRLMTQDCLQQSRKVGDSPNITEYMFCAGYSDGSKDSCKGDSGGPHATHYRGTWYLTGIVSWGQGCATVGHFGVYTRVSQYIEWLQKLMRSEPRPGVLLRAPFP
T1 sequence (P08709 61-212 partner limits assumed): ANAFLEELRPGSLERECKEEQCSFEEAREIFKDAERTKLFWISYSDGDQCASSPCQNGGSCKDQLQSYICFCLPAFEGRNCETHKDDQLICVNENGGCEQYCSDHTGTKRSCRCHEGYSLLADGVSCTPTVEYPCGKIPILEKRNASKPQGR
T1 sequence (P13726 33-295 partner): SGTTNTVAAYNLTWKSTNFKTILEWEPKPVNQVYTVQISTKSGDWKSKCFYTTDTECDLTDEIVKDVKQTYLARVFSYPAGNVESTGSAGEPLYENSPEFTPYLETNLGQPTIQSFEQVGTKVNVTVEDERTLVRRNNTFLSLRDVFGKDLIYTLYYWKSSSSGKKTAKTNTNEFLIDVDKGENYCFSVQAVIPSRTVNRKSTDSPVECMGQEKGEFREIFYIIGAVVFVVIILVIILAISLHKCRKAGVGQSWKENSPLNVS
T2 sequence (P08709 213-466 limits assumed): as the sequence (P08709 213-466 limits assumed) above
T2 sequence (P08709 61-212 partner limits assumed): as the sequence (P08709 61-212 partner limits assumed) above
T2 sequence (P13726 33-295 partner): as the sequence (P13726 33-295 partner) above

As to `C[C@@H](O)[C@H](NC(=O)[C@@H](N)Cc1ccc(O)cc1)C(=O)N[C@@H](CCCNC(=N)N)C(=O)O` [tyrosyl] (H-Tyr-Thr-Arg-OH), in assay [1], the “inhibitory activity (in words)” value is “inactive”. Take `CC(C)C[C@@H](N)C(=O)N[C@H](C(=O)N[C@@H](CCCNC(=N)N)C(=O)CCl)[C@@H](C)O` [Example 15, H-D-Leu-L-Thr-L-Arg-CMK] (H-[dL]-Thr-Arg-CH2Cl): the “Ki 5” value in assay [1] turned out to be 100 MU. For the compound `C[C@@H](O)[C@H](NC(=O)[C@@H]1CCCN1)C(=O)N[C@@H](CCCNC(=N)N)C(=O)O` [prolyl] (H-Pro-Thr-Arg-OH), in assay [1], the “inhibitory activity (in words)” value was “inactive”. Regarding `C[C@@H](O)[C@H](NC(=O)[C@H](N)Cc1ccccc1)C(=O)N[C@@H](CCCNC(=N)N)C(=O)CCl` [Example 16, H-D-Phe-L-Thr-L-Arg-CMK] (H-[dF]-Thr-Arg-CH2Cl), the “Ki 5” value in assay [1] is 42 MU.

As for `C[C@@H](O)[C@H](NC(=O)[C@@H](N)CCC(N)=O)C(=O)N[C@@H](CCCNC(=N)N)C(=O)O` [Example 6, H-L-Gln-L-Thr-L-Arg] (H-Gln-Thr-Arg-OH), the “Relative potency Ki 5 (MU)” value in assay [1] amounted to 2.5 MU. On to `CC[C@H](C)[C@H](N)C(=O)N[C@H](C(=O)N[C@@H](CCCNC(=N)N)C(=O)O)[C@@H](C)O` [isoleucyl] (H-Ile-Thr-Arg-OH), for which the “inhibitory activity (in words)” value in assay [1] is “inactive”. Regarding `C[C@@H](O)[C@H](NC(=O)[C@@H](N)Cc1ccccc1)C(=O)N[C@@H](CCCNC(=N)N)C(=O)O` [phenylalanyl] (H-Phe-Thr-Arg-OH), in assay [1], the “inhibitory activity (in words)” value was “inactive”. Consider `C[C@@H](O)[C@H](NC(=O)[C@@H](N)CC(N)=O)C(=O)N[C@@H](CCCNC(=N)N)C(=O)CCl` [Example 8, H-L-Asn-L-Thr-L-Arg-CMK] (H-Asn-Thr-Arg-CH2Cl), for which the “Ki 5” value in assay [1] turned out to be 44 MU. As for `C[C@@H](O)[C@H](NC(=O)[C@@H](N)CC(N)=O)C(=O)N[C@@H](CCCNC(=N)N)C(=O)O` [Example 1, H-L-Asn-L-Thr-L-Arg] (H-Asn-Thr-Arg-OH), in assay [1], the “Relative potency Ki 5 (MU)” value was found to be 6.7 MU. Regarding `CSCC[C@H](N)C(=O)N[C@H](C(=O)N[C@@H](CCCNC(=N)N)C(=O)O)[C@@H](C)O` [methionyl] (H-Met-Thr-Arg-OH), in assay [1], the “inhibitory activity (in words)” value is “inactive”. As for `C[C@@H](O)[C@H](N)C(=O)N[C@@H](CCCNC(=N)N)C(=O)O` [Example 7, H-L-Thr-L-Arg] (H-Thr-Arg-OH), in assay [1], the “Relative potency Ki 5 (MU)” value is on record as 2.0 MU and the “inhibitory activity (in words)” value is on record as “slight activity”. As to `C[C@@H](O)[C@H](NC(=O)[C@@H](N)CO)C(=O)N[C@@H](CCCNC(=N)N)C(=O)O` [seryl] (H-Ser-Thr-Arg-OH), the “inhibitory activity (in words)” value in assay [1] is “inactive”.

Consider `CC(C)C[C@H](N)C(=O)N[C@@H](CO)C(=O)N[C@@H](CCCNC(=N)N)C(=O)CCl` [Example 20, H-L-Leu-L-Ser-L-Arg-CMK] (H-Leu-Ser-Arg-CH2Cl), for which the “Ki 5” value in assay [1] is listed as 60 MU. Turning to `C[C@@H](O)[C@H](NC(=O)[C@@H](N)Cc1c[nH]cn1)C(=O)N[C@@H](CCCNC(=N)N)C(=O)O` [Example 3, H-L-His-L-Thr-L-Arg] (H-His-Thr-Arg-OH), in assay [1], the “Relative potency Ki 5 (MU)” value turned out to be 6.2 MU and the “Peptide (Ki 5)” value was 6.2 MU. Regarding `C[C@@H](O)[C@H](NC(=O)[C@@H](N)Cc1c[nH]cn1)C(=O)N[C@@H](CCCNC(=N)N)C(=O)CCl` [Example 10, H-L-His-L-Thr-L-Arg-CMK] (H-His-Thr-Arg-CH2Cl), in assay [1], the “Peptidyl-CMK (Ki 5)” value stood at 54.0 MU, the pIC50 is 3.92 and the “Ki 5” value was 54 MU. Regarding `C[C@@H](O)[C@H](NC(=O)[C@@H](N)CCC(=O)O)C(=O)N[C@@H](CCCNC(=N)N)C(=O)O` [glutamyl] (H-Glu-Thr-Arg-OH), the “inhibitory activity (in words)” value in assay [1] was “inactive”. As for `CC(C)C[C@H](N)C(=O)N1CCC[C@H]1C(=O)N[C@@H](CCCNC(=N)N)C(=O)CCl` [Example 21, H-L-Leu-L-Pro-L-Arg-CMK] (H-Leu-Pro-Arg-CH2Cl), the “Ki 5” value in assay [1] amounted to 60 MU. For the compound `CC(C)[C@H](N)C(=O)N[C@H](C(=O)N[C@@H](CCCNC(=N)N)C(=O)O)[C@@H](C)O` [valyl] (H-Val-Thr-Arg-OH), the “inhibitory activity (in words)” value in assay [1] is “inactive”.

For `C[C@@H](O)[C@H](NC(=O)CN)C(=O)N[C@@H](CCCNC(=N)N)C(=O)O` [glycyl] (H-Gly-Thr-Arg-OH), the “inhibitory activity (in words)” value in assay [1] is “inactive”. Regarding `Cc1ccc(S(=O)(=O)N[C@@H](CC(C)C)C(=O)N[C@H](C(=O)N[C@@H](CCCNC(=N)N)C(=O)CCl)[C@@H](C)O)cc1` [Example 18, Tosyl-L-Leu-L-Thr-L-Arg-CMK] (Tos-Leu-Thr-Arg-CH2Cl), in assay [1], the “Ki 5” value is on record as 60 MU. Regarding `CC(C)C[C@H](N)C(=O)N[C@H](C(=O)N[C@@H](CCCNC(=N)N)C(=O)CCl)[C@@H](C)O` [Example 11, H-L-Leu-L-Thr-L-Arg-CMK] (H-Leu-Thr-Arg-CH2Cl), in assay [2] (LTR-CMK final conc 3 μM), the inhibition at 3 µM was 5.3%. Further, the inhibition at 30 µM in assay [2] (LTR-CMK final conc 30 μM) is 41%. In addition, the inhibition at 300 µM in assay [2] (LTR-CMK final conc 300 μM) was determined as 75%. In assay [1], the “Peptidyl-CMK (Ki 5)” value was 67.5 MU, the pIC50 is 4.02 and the “Ki 5” value came to 68 MU. Consider `C[C@@H](O)[C@H](N)C(=O)N[C@H](C(=O)N[C@@H](CCCNC(=N)N)C(=O)O)[C@@H](C)O` [Example 5, H-L-Thr-L-Thr-L-Arg] (H-Thr-Thr-Arg-OH), for which the “Relative potency Ki 5 (MU)” value in assay [1] was 2.6 MU. Regarding `C[C@@H](O)[C@H](NC(=O)[C@@H](N)Cc1c[nH]c2ccccc12)C(=O)N[C@@H](CCCNC(=N)N)C(=O)O` [tryptophanyl] (H-Trp-Thr-Arg-OH), the “inhibitory activity (in words)” value in assay [1] was “inactive”. Regarding `CC(C)C[C@H](NS(=O)(=O)c1cccc2c(N(C)C)cccc12)C(=O)N[C@H](C(=O)N[C@@H](CCCNC(=N)N)C(=O)CCl)[C@@H](C)O` [Example 19, Dansyl-L-Leu-L-Thr-L-Arg-CMK] (Dansyl-Leu-Thr-Arg-CH2Cl), the “Ki 5” value in assay [1] amounted to 35 MU. Consider `C[C@@H](O)[C@H](NC(=O)[C@@H](N)CC(=O)O)C(=O)N[C@@H](CCCNC(=N)N)C(=O)CCl` [Example 9, H-L-Asp-L-Thr-L-Arg-CMK] (H-Asp-Thr-Arg-CH2Cl), for which, in assay [1], the “Ki 5” value is 60 MU. The same measure, in the same setting: then `N=C(N)NCCC[C@H](NC(=O)[C@H](CO)NC(=O)[C@@H](N)CC(N)=O)C(=O)CCl` [Example 22, H-L-Asn-L-Ser-L-Arg-CMK] (H-Asn-Ser-Arg-CH2Cl), with 60 MU. For `C[C@@H](O)[C@H](NC(=O)[C@@H](N)CC(=O)O)C(=O)N[C@@H](CCCNC(=N)N)C(=O)O` [Example 2, H-L-Asp-L-Thr-L-Arg] (H-Asp-Thr-Arg-OH), in assay [1], the “Relative potency Ki 5 (MU)” value came to 4.8 MU. `CC(C)C[C@H](N)C(=O)N[C@H](C(=O)N[C@@H](CCCNC(=N)N)C(=O)O)[C@@H](C)O` [Example 4, H-L-Leu-L-Thr-L-Arg] (H-Leu-Thr-Arg-OH): in assay [1], the “Relative potency Ki 5 (MU)” value is 4.5 MU and the “Peptide (Ki 5)” value worked out at 4.5 MU.

As for `CC(=O)N[C@@H](CC(C)C)C(=O)N[C@H](C(=O)N[C@@H](CCCNC(=N)N)C(=O)CCl)[C@@H](C)O` [Example 17, Ac-L-Leu-L-Thr-L-Arg-CMK] (Ac-Leu-Thr-Arg-CH2Cl), the “Ki 5” value in assay [1] is reported as 60 MU.
